# Measured values reported in US8883739B2, “Osteocalcin as a treatment for male reproductive disorders” (The Trustees of Columbia University in the City of New York, priority 2010, dated 2014).
# Where no end group is shown, it is not given here.
# Experiments:
# GPCR6A = target: T1, GPCR6A (Mus musculus, UniProt Q8K4Z6); details: Christiansen et al., 2007; cited from earlier work
# T1 sequence (Q8K4Z6 21-928): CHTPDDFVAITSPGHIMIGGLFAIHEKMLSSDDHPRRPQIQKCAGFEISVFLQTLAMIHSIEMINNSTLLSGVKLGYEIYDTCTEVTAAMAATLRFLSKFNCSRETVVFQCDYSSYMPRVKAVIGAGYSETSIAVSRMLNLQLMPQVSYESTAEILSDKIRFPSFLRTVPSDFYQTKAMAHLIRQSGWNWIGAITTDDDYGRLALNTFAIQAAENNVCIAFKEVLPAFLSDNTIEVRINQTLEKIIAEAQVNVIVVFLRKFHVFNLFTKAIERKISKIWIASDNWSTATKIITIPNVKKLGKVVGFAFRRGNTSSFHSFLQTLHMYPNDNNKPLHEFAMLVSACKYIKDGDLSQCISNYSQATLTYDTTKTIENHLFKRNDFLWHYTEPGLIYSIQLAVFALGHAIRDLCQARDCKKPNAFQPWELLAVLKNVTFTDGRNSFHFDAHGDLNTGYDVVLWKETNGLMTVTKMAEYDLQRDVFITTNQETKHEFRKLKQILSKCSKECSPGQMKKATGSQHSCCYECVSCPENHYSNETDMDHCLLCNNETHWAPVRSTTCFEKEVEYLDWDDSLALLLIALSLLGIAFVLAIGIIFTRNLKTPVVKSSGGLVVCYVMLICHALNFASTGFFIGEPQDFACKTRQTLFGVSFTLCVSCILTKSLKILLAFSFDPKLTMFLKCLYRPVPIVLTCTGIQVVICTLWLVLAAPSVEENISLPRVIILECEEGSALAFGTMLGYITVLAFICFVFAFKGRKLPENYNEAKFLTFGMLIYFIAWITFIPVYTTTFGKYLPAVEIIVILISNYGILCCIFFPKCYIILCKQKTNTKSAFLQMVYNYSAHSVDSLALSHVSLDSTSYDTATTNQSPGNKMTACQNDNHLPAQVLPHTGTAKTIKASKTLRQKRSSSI
# GPRC6a = target: T2, GPRC6a (Mus musculus, UniProt Q8K4Z6); experiment: Receptor binding assay with biotinylated osteocalcin on testis sections
# T2 construct: testes from 8-week old mice were snap frozen in liquid nitrogen and 20 μm thick sections were prepared; from tissue; host or cells: mouse testis sections (Leydig cells), 8-week old mice
# T2 sequence (Q8K4Z6 21-928): T1 sequence (Q8K4Z6 21-928)
# Experimental: For binding studies, testes from 8-week old mice were snap frozen in liquid nitrogen and 20 μm thick sections were prepared and dessicated overnight at +4° C. under vacuum. On the following day, sections were rehydrated in ice-cold binding buffer (50 mM TrisHCl, pH 7.4, 10 mM MgCl2, 0.1 mM EDTA and 0.1% BSA) for 15 minutes and incubated for 1 hour in the presence of biotinylated osteocalcin. […] After 3 washes in cold PBS, sections were incubated for 1 hour in the detection system containing 0.1% BSA (ABC Elite, Vector Laboratories), washed again, and incubated with DAB peroxidase substrate kit (Vector Laboratories) according to the manufacturer's protocol. After a final wash, sections were mounted in water-based mounting medium. As negative controls, sections incubated with the detection system only (ABC Elite and DAB) or OstR−/− testis sections (Basura et al., 2008, Hear. Res. 244:45-50) were used.
# WT mice [1] = experiment: Daily osteocalcin injections in WT mice for 12 weeks; assay type: in vivo, mouse
# Experimental: WT mice (n=6) were injected daily with either 3 ng/g or 30 ng/g of uncarboxylated osteocalcin for 12 weeks. […] Likewise, serum testosterone levels were increased in osteocalcin-injected mice compared to vehicle-injected mice (FIG. 7D).
# (§1) Caudal epididymides were minced in 1 ml PBS and the number of cells released counted after 1 hour. The total sperm count was assessed in the final suspension by using a hemacytometer (Dakhova et al., 2009, Endocrinology 150:404-412). Circulating levels of testosterone, estradiol (E2), and progesterone were measured by radioimmunoassay (RIA) from Diagnostic Systems Laboratories (Testosterone RIA DSL-4000, Estradiol RIA DSL-43100, and Progesterone RIA-3900).
# One testis or ovary from each mouse was randomly selected for molecular analysis and the other one was used for histology. Specimens were collected, weighed, and fixed in Bouin's fixative for histological analyses before being dehydrated through graded ethanol, processed for paraffin embedding, and serially sectioned at 5 μm. For histological analysis, sections of testes and ovaries were stained with periodic acid-Schiff and counterstained with hematoxylin. TUNEL labeling was performed using the ApopTag Peroxydase In Situ Apoptosis detection kit (Millipore-57100). Apoptotic indices were determined by counting the total number of TUNEL-positive cells or the number of TUNEL positive spermatocytes for all stage tubules. Approximately 500 tubules were counted on at least 4 cross-sections located at midtestis for each animal.
# Leydig cells = experiment: CREB phosphorylation Western blot of Leydig cells; assay type: cell-based, mouse
# Experimental: (§2) Western blotting was performed according to standard procedures. Frozen testes were homogenized and lysed with 1×RIPA buffer. Membranes were blocked and then incubated overnight with primary antibody in TBST-5% BSA, followed by incubation with appropriate HRP-conjugated secondary antibody. Signals were visualized with ECL. The following primary antibodies were used: anti-phospho-tyrosin (9416), anti-pERK1/2 (4370), anti-ERK1/2 (9102), anti-pCREB (9198), anti-CREB (4820), anti-Cleaved Caspase-3 (Asp175) (9661) (all from Cell Signaling), and anti-tACE (H-300): sc-13973 and anti-CHD5 (H-185): sc-68390 from Santa Cruz; the anti-osteocalcin was described in Ferron et al., 2010, Biochem. Biophys. Res. Comm. 397:691-696.
# TM3 Leydig cells [2] = experiment: qPCR of steroidogenic genes in TM3 Leydig cells treated with osteocalcin; assay type: cell-based, mouse; details: osteocalcin 0.3 to 300 ng/ml, 2 hours
# Experimental: TM3 cells were treated with increasing amounts of osteocalcin and assayed for the expression of genes encoding enzymes of the steroidogenic cascade. […] Thus, whether looked at by in vivo or cell-based assays, osteocalcin promotes testosterone biosynthesis.
# Gene expression analyses were performed using real time PCR. DNAse I-treated total RNA was converted to cDNA with the SuperScript III kit (Invitrogen). Real-time PCR were performed using the Taq SYBR Green Supermix with ROX (Biorad) on an MX3000 instrument (Stratagene); beta-actin amplification was used as an internal reference for each sample. All primers were from SuperArray.
# (§3) RNA was purified from tissues, primary Leydig cells, or cultured cells using TRIZOL® (Invitrogen). RNA isolation, cDNA preparation, and qPCR analysis was carried out following standard protocols. qPCR analyses were performed using specific quantitative PCR primers from SABiosciences.
# TM3 Leydig cells [3] = experiment: cAMP quantification in Leydig cells; assay type: cell-based, mouse; details: 30 minutes, 0.5 mM IBMX
# Experimental: For cAMP measurements, TM3 Leydig cells were plated in 6 cm dishes (10^7 cells per dish) a day before experiment. Cells were serum starved for 16 hours (in the presence of 0.1% BSA) then pre-incubated in the presence of 0.5 mM IBMX for 30 minutes and stimulated with the indicated concentration of osteocalcin (also in the presence of 0.5 mM IBMX) for 30 minutes. cAMP concentration was measured with the Parameter cAMP kit (R&D Systems, KGE002).
# primary Leydig cells [4] = experiment: Osteocalcin stimulation of primary Leydig cells, testosterone RIA; assay type: cell-based, mouse; details: increasing amounts of osteocalcin (0-100 ng/ml)
# Experimental: (§4) Adult mouse Leydig cells were isolated by mechanical dissociation of the testes followed by purification on a 0-90% Percoll gradient (Hunter et al., 1982, Mol. Cell. Endocrinol. 25:35-47; Schumacher et al., 1978, FEBS Lett. 91:333-338). Primary Leydig cells were cultured in Minimal Essential Medium (MEM+GlutaMAX, Invitrogen) supplemented with 1× PenStrep, 25 mM HEPES, pH 7.4 and 0.07% BSA at 33° C. in 5% CO2. After 3 hours of attaching and starvation, cells were washed once with culture medium and then used for experiments. The preparation of testis explants was adapted from Powlin et al., 1998, Toxicol. Sci. 46:61-74. Explants were washed 3 times with PBS 1× and placed in serum free RPMI medium for 2 hours before being used for experiments.
# (§5) After 1 hour, an aliquot of medium was collected for measurements of testosterone. Cells were then maintained for 3 additional hours and lysed in 1 ml TRIZOL® (Invitrogen) for RNA isolation.
# as §1
# TM3 Leydig cells [5] = experiment: ERK1/2 phosphorylation Western blot of Leydig cells; assay type: cell-based, mouse
# Experimental: as §2
# TM3 Leydig cells [6] = experiment: Anti-phospho-tyrosine Western blot of Leydig cells; assay type: cell-based, mouse; details: 1 minute
# Experimental: as §2
# primary Leydig cells [7] = experiment: Measurement of intracellular calcium in primary Leydig cells; assay type: cell-based, mouse
# Experimental: Isolated primary Leydig cells were resuspended in buffer containing 95 mM NaCl, 4.8 mM KCl, 1.2 mM MgSO4, 1.2 mM KH2PO4, 5.6 mM glucose, 25 mM NaHCO3, 1.7 mM CaCl2, 0.25 mM sodium purivate, 1× PenStrep, 20 mM HEPES, 0.3% BSA, pH 7.4 at 37° C. (reagents from Sigma Aldrich, except for sodium pyruvate, PenStrep and HEPES from Invitrogen), plated at the density of 17-25000 cells/well on 96-well plate and placed in an incubator at 33° C., 5% CO2 for 2 hours. Afterward, the FLIPR dye (Calcium Plus Assay Kit Dye, Molecular Devices) diluted in the same buffer supplemented with 2.5 mM probenecid, pH 7.4 was exchanged for the previous medium and incubated with the cells for an additional 30-45 minutes. Following the incubation with the dye, cells were placed in a BD Pathway 855 High-Content Bioimager, recorded for 10-20 seconds to get baseline fluorescence, and then stimulated with doses of osteocalcin ranging from 0.3 to 500 ng/ml as well as control substances: medium, calcium ionophore A23187, 10% FBS, 400 μM Arginine^2+, 100 μM ATP/UTP mix and recorded for an additional 2-5 minutes. The probing time was varied between 1 and 5 seconds. Obtained images were analyzed for the change in fluorescence using ImageJ 1.41.
# WT mice [8] = experiment: Circulating testosterone after osteocalcin injection in WT mice; assay type: in vivo, mouse; details: injection 3 ng/g of body weight, 1, 4 and 8 hours
# Experimental: as §1
# testis explants = experiment: Osteocalcin stimulation of testis explants, testosterone RIA; assay type: cell-based, mouse; details: increasing amounts of osteocalcin (0-100 ng/ml)
# Experimental: as §4, §5, §1
# Leydig cell cultures = experiment: Expression of testosterone biosynthesis enzymes in Leydig cell cultures treated with uncarboxylated osteocalcin; assay type: cell-based, mouse; details: qPCR
# Experimental: as §4, §5, §3
# [9] = WT mice, 3 ng/g or 30 ng/g daily for 12 weeks, both doses
compound,measurement,setting,value
N=C(N)NCCC[C@H](N)C(=O)O [arginine],activation of GPCR6A,GPCR6A,activate
NCCCC[C@H](N)C(=O)O [lysine],activation of GPCR6A,GPCR6A,activate
NCCC[C@H](N)C(=O)O [ornithine],activation of GPCR6A,GPCR6A,activate
"biotinylated osteocalcin: biotinylated osteocalcin used as a ligand in binding assays on mouse testes (YLGASVPSPDPLEPTREQCELNPACDELSDQYGLKTAYKRIYGITI; ends and bridges not checked; also: biotinylated, site not given here)",binding to GPRC6a-deficient testes,GPRC6a; GPRC6a-deficient testis sections,no binding was detected
same,binding to Leydig cells,GPRC6a; WT mouse testis sections,bound
"uncarboxylated osteocalcin: Recombinant osteocalcin bacterially produced as GST fusion, cleaved with thrombin; completely undercarboxylated at all three sites (YLGASVPSPDPLEPTREQCELNPACDELSDQYGLKTAYKRIYGITI)",serum testosterone levels,"WT mice [1]; WT mice injected daily, compared to vehicle-injected mice",increased
same,sperm cell apoptosis,WT mice [1]; [9],decreased
same,sperm count,WT mice [1]; [9],significantly increased
same,testis weight,WT mice [1]; [9],significantly increased
same,CREB phosphorylation,Leydig cells,favors
same,"expression of StAR, Cyp11a and Cyp17",TM3 Leydig cells [2],specifically increased
same,cAMP production,TM3 Leydig cells [3]; listed as Osteocalcin,consistently induced
same,cAMP production,TM3 Leydig cells [3]; listed as osteocalcin,increased
same,testosterone secretion,primary Leydig cells [4],dose-dependent increase
same,ERK activation (ERK1/2 phosphorylation),TM3 Leydig cells [5]; listed as Osteocalcin,did not induce
same,ERK activation (ERK1/2 phosphorylation),TM3 Leydig cells [5]; listed as osteocalcin,absence of ERK1/2 phosphorylation
same,tyrosine phosphorylation,TM3 Leydig cells [6]; listed as Osteocalcin,did not induce
same,tyrosine phosphorylation,TM3 Leydig cells [6]; listed as osteocalcin,not in osteocalcin treated cells
same,intracellular calcium accumulation,primary Leydig cells [7],did not induce
same,competition of osteocalcin binding,"GPRC6a; excess (100 fold) of unlabeled competitor, WT testis sections",competed away
same,circulating levels of testosterone,WT mice [8],increased
same,testosterone secretion,testis explants,dose-dependent increase
same,"expression of StAR, Cyp11a, Cyp17 and 3β-HSD",Leydig cell cultures,increased
